Patent US10550102B2, “Indane and indoline derivatives and the use thereof as soluble guanylate cyclase activators” (NOVARTIS AG, priority 2014, dated 2020)

molecular target: soluble guanylate cyclase (human GUCYA3 and GUCYB3) overexpressed in CHO cells (Homo sapiens (Human), UniProt Q02108+Q02153); test: CHO cellular assay (cGMP production, Cisbio cGMP HTRF kit); type: cell-based; settings: CHO GUCY clone 8E10, cGMP production, assay buffer with 1 mM IBMX and 20 uM ODQ, 1 h room temperature; minimum quantification limit 0.5 nM (listed 0.5 nM means ≤0.5 nM); read-out: EC50
From the text: Chinese hamster ovary (CHO) cells overexpressing soluble guanylate cyclase were generated to test the effect of sGC activators in a cellular context. Human cDNAs for GUCYA3 (RefSeq: NM_000856.3) and GUCYB3 (RefSeq: NM_000857.1) were amplified by PCR from a HUVEC (Human Umbilical Vein Endothelial Cells) cDNA library and cloned into mammalian expression vectors. CHO K1 cells (ATCC CCL-61) were transfected using Lipofectamine 2000 following manufacturer's instructions and stably expressing clones were identified by antibiotic selection. CHO GUCY clone 8E10 was used for subsequent experiments. Cells were seeded at a density of 3000 cells/well in white 384-well proxyplates (Perkin Elmer) and incubated overnight, then the medium was removed and cells were washed with assay buffer (HBSS, 0.1% BSA. 1 mM IBMX, 20 uM ODQ). sGC activators were serially diluted in DMSO, then diluted in assay buffer prior to adding to cells (10 ul/well, final DMSO concentration 0.5%). Cells were incubated with compounds for 1 h room temperature, then assayed for cGMP production using Cisbio cGMP HTRF kit (62GM2PEC) according to manufacturer's instructions. The EC50s are calculated based on the amount of cGMP interpolated from the standard curve, using a 4-parameter sigmoidal dose-response.

Sequence of soluble guanylate cyclase (human GUCYA3 and GUCYB3) overexpressed in CHO cells (Q02108 whole entry partner): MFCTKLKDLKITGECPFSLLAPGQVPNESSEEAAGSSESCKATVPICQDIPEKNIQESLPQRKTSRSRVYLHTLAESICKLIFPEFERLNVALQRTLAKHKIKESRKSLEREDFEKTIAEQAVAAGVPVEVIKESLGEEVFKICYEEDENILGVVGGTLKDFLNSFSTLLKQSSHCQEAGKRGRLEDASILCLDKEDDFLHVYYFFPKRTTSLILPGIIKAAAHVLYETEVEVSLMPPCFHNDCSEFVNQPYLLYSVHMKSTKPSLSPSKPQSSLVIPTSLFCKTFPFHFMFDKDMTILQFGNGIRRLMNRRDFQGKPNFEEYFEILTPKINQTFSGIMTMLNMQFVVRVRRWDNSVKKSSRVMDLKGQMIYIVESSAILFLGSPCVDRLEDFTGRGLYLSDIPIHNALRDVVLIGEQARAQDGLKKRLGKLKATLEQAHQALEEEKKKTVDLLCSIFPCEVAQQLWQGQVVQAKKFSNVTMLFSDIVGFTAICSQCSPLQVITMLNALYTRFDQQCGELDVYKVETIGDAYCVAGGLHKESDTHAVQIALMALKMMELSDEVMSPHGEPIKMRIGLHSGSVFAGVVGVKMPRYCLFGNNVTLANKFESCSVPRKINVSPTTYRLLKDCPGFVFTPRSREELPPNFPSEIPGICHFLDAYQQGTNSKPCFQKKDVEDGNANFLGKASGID
Sequence of soluble guanylate cyclase (human GUCYA3 and GUCYB3) overexpressed in CHO cells (Q02153 whole entry): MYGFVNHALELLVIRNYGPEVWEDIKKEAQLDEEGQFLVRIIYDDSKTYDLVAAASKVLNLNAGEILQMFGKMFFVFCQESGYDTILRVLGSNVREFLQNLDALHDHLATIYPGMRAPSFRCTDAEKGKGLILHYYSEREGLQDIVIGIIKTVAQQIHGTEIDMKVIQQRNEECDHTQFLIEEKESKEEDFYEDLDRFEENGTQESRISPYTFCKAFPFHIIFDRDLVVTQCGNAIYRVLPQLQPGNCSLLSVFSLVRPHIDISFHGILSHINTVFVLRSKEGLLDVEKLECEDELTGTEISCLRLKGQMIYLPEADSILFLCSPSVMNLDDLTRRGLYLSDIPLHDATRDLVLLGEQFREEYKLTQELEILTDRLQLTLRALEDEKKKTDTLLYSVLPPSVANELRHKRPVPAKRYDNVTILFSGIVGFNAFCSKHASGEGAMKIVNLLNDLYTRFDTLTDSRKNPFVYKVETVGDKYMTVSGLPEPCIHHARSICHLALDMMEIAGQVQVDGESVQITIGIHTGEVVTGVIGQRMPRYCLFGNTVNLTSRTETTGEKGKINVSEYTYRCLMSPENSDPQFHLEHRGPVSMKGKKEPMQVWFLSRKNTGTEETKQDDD

SMILES | EC50
CCc1cc(NC2COc3cccc(-c4cccc(-n5ncc(C(=O)O)c5CC)n4)c32)ccc1C1CCN(C(=O)C2CC2)CC1 (single isomer, unassigned; (-)) [(−)-36-2, (−)-1-(6-(3-((4-(1-(Cyclopropanecarbonyl)piperidin-4-yl)-3-ethylphenyl)amino)-2,3-dihydrobenzofuran-4-yl)pyridin-2-yl)-5-ethyl-1H-pyrazole-4-carboxylic acid] | 1 nM
Cc1c(C(=O)O)cnn1-c1cccc(-c2cccc3c2C(Nc2ccc(C4CCN(C(=O)C5CC5)CC4)cc2)CC3)n1 (single isomer, unassigned; (-)) [Example 9. b). (−), (−)-1-(6-(3-((4-(1-(cyclopropanecarbonyl)piperidin-4-yl)phenyl)amino)-2,3-dihydro-1H-inden-4-yl)pyridin-2-yl)-5-methyl-1H-pyrazole-4-carboxylic acid] | 184 nM
CCc1c(C(=O)O)cnn1-c1cccc(-c2cccc3c2C(Cc2ccc(C4CCN(C(=O)[C@H](C)O)CC4)cc2C)CC3)n1 (single isomer, unassigned; (+)) [40-2 (+)] | ≤ 0.5 nM
CCOC(=O)N1CCC(c2ccc(NC3CCc4cccc(-c5cccc(-n6ncc(C(=O)O)c6CC)n5)c43)cc2CC)CC1 (single isomer, unassigned; (-)) [(−)-52-1, (−)-1-(6-(3-((4-(1-(Ethoxycarbonyl)piperidin-4-yl)-3-ethylphenyl)amino)-2,3-dihydro-1H-inden-4-yl)pyridin-2-yl)-5-ethyl-1H-pyrazole-4-carboxylic acid] | 19 nM
CCc1cc(CN2CC(C)(C)c3cccc(-c4cccc(-n5ncc(C(=O)O)c5CC)n4)c32)ccc1C1CCN(C(=O)C2CC2)CC1 [Example 23] | 2 nM
CCc1cc(NC2COc3cccc(-c4cccc(-n5ncc(C(=O)O)c5CC)n4)c32)ccc1C1CCN(C(=O)C2CC2)CC1 (single isomer, unassigned; (+)) [(+)-36-2, (+)-1-(6-(3-((4-(1-(Cyclopropanecarbonyl)piperidin-4-yl)-3-ethylphenyl)amino)-2,3-dihydrobenzofuran-4-yl)pyridin-2-yl)-5-ethyl-1H-pyrazole-4-carboxylic acid] | ≤ 0.5 nM
O=C(O)c1cnn(-c2cccc(-c3cccc4c3N(Cc3ccc(C5CCN(C(=O)C6CC6)CC5)cc3)CC4)n2)c1C(F)(F)F [Example 12, 1-(6-(1-(4-(1-(Cyclopropanecarbonyl)piperidin-4-yl)benzyl)indolin-7-yl)pyridin-2-yl)-5-(trifluoromethyl)-1H-pyrazole-4-carboxylic Acid] | 1 nM
CCc1cc(CC2CCc3cccc(-c4cccc(-n5ncc(C(=O)O)c5CC)n4)c32)ccc1C1CCN(C(=O)OC)CC1 (single isomer, unassigned; (-)) [Example 41. b). (−), (−)-5-ethyl-1-(6-(3-(3-ethyl-4-(1-(methoxycarbonyl)piperidin-4-yl)benzyl)-2,3-dihydro-1H-inden-4-yl)pyridin-2-yl)-1H-pyrazole-4-carboxylic acid] | 18 nM
C=CCOC(=O)N1CCC(c2ccc(NC3CCc4cccc(-c5cccc(-n6ncc(C(=O)O)c6CC)n5)c43)cc2CC)CC1 (single isomer, unassigned; (+)) [(+)-52-3] | ≤ 0.5 nM
O=C(O)c1cnn(-c2cccc(-c3cccc4c3C(Oc3ccc5c(c3)CCN(Cc3ccccn3)C5)CC4)n2)c1C(F)(F)F (single isomer, unassigned; (+)) [Example 4a, (+)-1-(6-(3-((2-(pyridin-2-ylmethyl)-1,2,3,4-tetrahydroisoquinolin-6-yl)oxy)-2,3-dihydro-1H-inden-4-yl)pyridin-2-yl)-5-(trifluoromethyl)-1H-pyrazole-4-carboxylic Acid] | 2.4 nM
Cc1cc2c(c(-c3cccc(-n4ncc(C(=O)O)c4C(F)(F)F)n3)c1)C(Oc1ccc3c(c1)CCN(Cc1ccccn1)C3)CC2 (stereo not drawn) [Example 5-1] | 39 nM
Cc1cc(C2CCN(C(=O)C3CC3)CC2)cnc1NC1CCc2cccc(-c3cccc(-n4ncc(C(=O)O)c4C)n3)c21 (racemic) [Example 62, (±)-1-(6-(3-((5-(1-Cyclopropanecarbonyl)piperidin-4-yl)-3-methylpyridin-2-yl)amino)-2,3-dihydro-1H-inden-4-yl)pyridin-2-yl)-5-methyl-1H-pyrazole-4-carboxylic Acid] | 6 nM
Cc1cc2c(c(-c3cccc(-n4ncc(C(=O)O)c4C(F)(F)F)n3)c1)C(Nc1ccc(C3CCN(C(=O)C4CC4)CC3)cc1C)CC2 (single isomer, unassigned; (-)) [43 (−), (−)-1-(6-(3-((4-(1-(Cyclopropanecarbonyl)piperidin-4-yl)-2-methylphenyl)amino)-6-methyl-2,3-dihydro-1H-inden-4-yl)pyridin-2-yl)-5-(trifluoromethyl)-1H-pyrazole-4-carboxylic acid] | 23 nM
CCc1cc(CC2CCc3cccc(-c4cccc(-n5ncc(C(=O)O)c5C)n4)c32)ccc1C1CCN(C(=O)C2CC2)CC1 (single isomer, unassigned; (+)) [38-2 (+), (+)-1-(6-(3-(4-(1-(cyclopropanecarbonyl)piperidin-4-yl)-3-ethylbenzyl)-2,3-dihydro-1H-inden-4-yl)pyridin-2-yl)-5-methyl-1H-pyrazole-4-carboxylic acid] | ≤ 0.5 nM
CCc1cc(NC2CCc3cccc(-c4cccc(-n5ncc(C(=O)O)c5CC)n4)c32)ccc1C1CCN(C(=O)C2CC2)CC1 (single isomer, unassigned; (-)) [(−)-53-1, (−)-1-(6-(3-((4-(1-(cyclopropanecarbonyl)piperidin-4-yl)-3-ethylphenyl)amino)-2,3-dihydro-1H-inden-4-yl)pyridin-2-yl)-5-ethyl-1H-pyrazole-4-carboxylic acid] | 21 nM
Cc1cc(C2CCN(C3CC3)CC2)ccc1CN1CCc2cccc(-c3cccc(-n4ncc(C(=O)O)c4C)n3)c21 [Example 24, 1-(6-(1-(4-(1-Cyclopropylpiperidin-4-yl)-2-methylbenzyl)indolin-7-yl)pyridin-2-yl)-5-methyl-1H-pyrazole-4-carboxylic Acid] | 7.9 nM
CCc1cc(Cn2ccc3cccc(-c4cccc(-n5ncc(C(=O)O)c5CC)n4)c32)ccc1C1CCN(C(=O)C2CC2)CC1 [Example 27] | ≤ 0.5 nM
Cc1nnc(N2CCC(c3ccc(NC4CCc5cccc(-c6cccc(-n7ncc(C(=O)O)c7C)n6)c54)c(C)c3)CC2)o1 (single isomer, unassigned; (+)) [58. b). (+), (+)-5-methyl-1-(6-(3-((2-methyl-4-(1-(5-methyl-1,3,4-oxadiazol-2-yl)piperidin-4-yl)phenyl)amino)-2,3-dihydro-1H-inden-4-yl)pyridin-2-yl)-1H-pyrazole-4-carboxylic acid] | ≤ 0.5 nM
CCC[C@H](O)C(=O)N1CCC(c2ccc(CC3CCc4cccc(-c5cccc(-n6ncc(C(=O)O)c6CC)n5)c43)c(C)c2)CC1 (single isomer, unassigned; (-)) [40-3 (−)] | 49 nM
Cc1cc(C2CCN(C(=O)C3CC3)CC2)ccc1NC1CCc2cccc(-c3cccc(-n4ncc(C(=O)O)c4C)c3)c21 (single isomer, unassigned; (-)) [44 (−), (−)-1-(3-(3-((4-(1-(cyclopropanecarbonyl)piperidin-4-yl)-2-methylphenyl)amino)-2,3-dihydro-1H-inden-4-yl)phenyl)-5-methyl-1H-pyrazole-4-carboxylic acid] | 9.9 nM

Results, then the compound that gave them:

EC50 | SMILES
≤ 0.5 nM | CCOC(=O)N1CCC(c2ccc(NC3CCc4cccc(-c5cccc(-n6ncc(C(=O)O)c6C)n5)c43)c(C)c2)CC1 (stereo not drawn) [Example 52-4]
60 nM | CCc1nc(NC2CCc3cccc(-c4cccc(-n5ncc(C(=O)O)c5CC)n4)c32)ccc1C1CCN(C(=O)C2CC2)CC1 (single isomer, unassigned; (-)) [Example 63b, (−)-1-(6-(3-((5-(1-(Cyclopropanecarbonyl)piperidin-4-yl)-6-ethylpyridin-2-yl)amino)-2,3-dihydro-1H-inden-4-yl)pyridin-2-yl)-5-ethyl-1H-pyrazole-4-carboxylic Acid]
≤ 0.5 nM | CCc1cc(CN2CC(C)c3cccc(-c4cccc(-n5ncc(C(=O)O)c5CC)n4)c32)ccc1C1CCN(C(=O)[C@H](C)O)CC1 (single isomer, unassigned) [Example 17a]
≤ 0.5 nM | Cc1cc(C2CCN(C(=O)[C@H](C)O)CC2)ccc1NC1COc2cccc(-c3cccc(-n4ncc(C(=O)O)c4C)n3)c21 (single isomer, unassigned; (+)) [Example 35a]
1 nM | Cc1cc2c(c(-c3cccc(-n4ncc(C(=O)O)c4C(F)(F)F)n3)c1)C(Nc1ccc(C3CCN(C(=O)C4CC4)CC3)cc1C)CC2 (racemic) [Example 11-1, (±)-1-(6-(3-((4-(1-(cyclopropanecarbonyl)piperidin-4-yl)-2-methylphenyl)amino)-6-methyl-2,3-dihydro-1H-inden-4-yl)pyridin-2-yl)-5-(trifluoromethyl)-1H-pyrazole-4-carboxylic acid]
≤ 0.5 nM | Cc1cc(C2CCN(C(=O)[C@H](C)O)CC2)ccc1NC1CCc2cccc(-c3cccc(-n4ncc(C(=O)O)c4C)n3)c21 (single isomer, unassigned; (+)) [Example 47a]
1 nM | O=C(O)c1cnn(-c2cccc(-c3cccc4c3C(Nc3ccc(C5CCN(C(=O)C6CC6)CC5)cc3)CC4)n2)c1C(F)(F)F (stereo not drawn) [Example 11-2]
